Experimental data: US12624017B2, “Salt form of isoquinolinone type compound as rock inhibitor and preparation method therefor” (GUANGZHOU OCUSUN OPHTHALMIC BIOTECHNOLOGY CO., LTD., priority 2020, dated 2026)

How the values were obtained:
[1] = test system: New Zealand rabbits with normal intraocular pressure; test: Intraocular pressure reduction, normal intraocular pressure, eye drops in both eyes for 14 days (Operation I); type: in vivo, New Zealand white rabbits; conditions: for Average intraocular pressure in both eyes / Change in intraocular pressure: 8.0 mg/mL, Day 1; for Change in intraocular pressure: vs negative control
Description: An intraocular pressure reduction effect and potential ocular toxicity of the compound of formula (I) were inspected with rabbits with normal intraocular pressure by repeated administration of eye drops for 14 days.
Male New Zealand white rabbits, aged 97 to 127 days, weighted 2.6-3.5 kg, purchased from Pizhou Oriental Breeding Co., Ltd.
The Male New Zealand white rabbits were randomly divided into 7 groups according to body weights, 6 rabbits/group. The animals in Groups 1 to 7 were administrated dropwise with a solvent/control/test article in both eyes in an administration volume of 50 μL/eye, once a day for 14 consecutive days, and the day of first administration was recorded as Day 1. The intraocular pressures of the animals were measured before administration, as well as at 1, 2, 4, 6, 8 and 10 h after administration, respectively. On Days 2 to 14, the intraocular pressures of animals in the K-115 administration group were measured at 1 h after daily administration; and intraocular pressures of the animals in the remaining groups were measured at 4 h after daily administration.

[2] = test system: New Zealand rabbits suffered with acute intraocular hypertension; test: Intraocular pressure reduction test in acute intraocular hypertension model; type: in vivo, New Zealand white rabbits; conditions: for Intraocular pressure in left eye: left eye (solvent only); for Intraocular pressure in right eye: 50 μL, right eye (modelled, dosed)
Description: Acute intraocular hypertension was induced for rabbits by injection of a viscoelastic agent into the anterior chamber, and the effects of ocular pressure reduction of the compound of formula (I) were inspected by administration of eye drops at different concentrations.
Male New Zealand white rabbits, aged 97 to 127 days, weighted 2.5 to 3.4 kg, purchased from Pizhou Oriental Breeding Co., Ltd.
50 male New Zealand white rabbits were randomly divided into 5 groups according to body weight, 10 rabbits/group. The anterior chambers of the right eyes of animals in Groups 1 to 5 were injected with medical sodium hyaluronate gel in a single dose, 100 μL/eye, to induce ocular hypertension in the animals. In 5 to 15 min after molding, the right eye was administrated dropwise with the solvent, K-115, and the test article (compounds of formula (I) of different concentrations), and the left eye was administrated dropwise with the solvent, 50 μL/eye; and the intraocular pressures of the animals in both eyes were measured before administration, as well as at 2, 4, 6, 8, and 10 h after administration, respectively.

Cc1ccc(C(=O)OCn2cc(C)c3c(S(=O)(=O)N4CC[C@H](N)C4)cccc3c2=O)c(C)c1 [Compound of formula (I)]
Average intraocular pressure in both eyes ([1]; 2 h after administration): 6.39 mmHg | Change in intraocular pressure ([1]; 2 h after administration): 4.58 mmHg | Average intraocular pressure in both eyes ([1]; 4 h after administration): 7.06 mmHg | Change in intraocular pressure ([1]; 4 h after administration): 4.25 mmHg | Average intraocular pressure in both eyes ([1]; 6 h after administration): 7.11 mmHg | Change in intraocular pressure ([1]; 6 h after administration): 4.83 mmHg | Average intraocular pressure in both eyes ([1]; 8 h after administration): 7.22 mmHg | Change in intraocular pressure ([1]; 8 h after administration): 5.75 mmHg | Average intraocular pressure in both eyes ([1]; 10 h after administration): 7.97 mmHg | Change in intraocular pressure ([1]; 10 h after administration): 6.45 mmHg | Average intraocular pressure in both eyes ([1]; before administration): 10.17 mmHg | Change in intraocular pressure ([1]; before administration): −0.28 mmHg | Efficacy of single administration (conclusion) ([1]; all tested doses (0.5 to 8.0 mg/mL), compared with K-115): better efficacy | Intraocular pressure reduction effect on 14 days of consecutive administration (conclusion) ([1]; dose of 0.5 mg/mL, compared with K-115): significant intraocular pressure reduction effect | Intraocular pressure in left eye ([2]; 0.25 mg/mL group, 2 h after administration): 6.07 mmHg | Intraocular pressure in left eye ([2]; 0.25 mg/mL group, 4 h after administration): 6.60 mmHg | Intraocular pressure in left eye ([2]; 0.25 mg/mL group, 6 h after administration): 9.10 mmHg | Intraocular pressure in left eye ([2]; 0.25 mg/mL group, 8 h after administration): 11.50 mmHg | Intraocular pressure in left eye ([2]; 0.25 mg/mL group, 10 h after administration): 12.43 mmHg | Intraocular pressure in left eye ([2]; 0.25 mg/mL group, before administration): 10.53 mmHg | Intraocular pressure in right eye ([2]; 0.25 mg/mL, 2 h after administration): 8.47 mmHg | Intraocular pressure in right eye ([2]; 0.25 mg/mL, 4 h after administration): 8.60 mmHg | Intraocular pressure in right eye ([2]; 0.25 mg/mL, 6 h after administration): 11.20 mmHg | Intraocular pressure in right eye ([2]; 0.25 mg/mL, 8 h after administration): 13.37 mmHg | Intraocular pressure in right eye ([2]; 0.25 mg/mL, 10 h after administration): 13.10 mmHg | Intraocular pressure in right eye ([2]; 0.25 mg/mL, before administration): 11.43 mmHg | Intraocular pressure in left eye ([2]; 2.0 mg/mL group, 2 h after administration): 6.60 mmHg | Intraocular pressure in left eye ([2]; 2.0 mg/mL group, 4 h after administration): 7.04 mmHg | Intraocular pressure in left eye ([2]; 2.0 mg/mL group, 6 h after administration): 11.23 mmHg | Intraocular pressure in left eye ([2]; 2.0 mg/mL group, 8 h after administration): 12.84 mmHg | Intraocular pressure in left eye ([2]; 2.0 mg/mL group, 10 h after administration): 13.10 mmHg | Intraocular pressure in left eye ([2]; 2.0 mg/mL group, before administration): 11.27 mmHg | Intraocular pressure in right eye ([2]; 2.0 mg/mL, 2 h after administration): 8.52 mmHg | Intraocular pressure in right eye ([2]; 2.0 mg/mL, 4 h after administration): 11.56 mmHg | Intraocular pressure in right eye ([2]; 2.0 mg/mL, 6 h after administration): 13.81 mmHg | Intraocular pressure in right eye ([2]; 2.0 mg/mL, 8 h after administration): 12.96 mmHg | Intraocular pressure in right eye ([2]; 2.0 mg/mL, 10 h after administration): 11.96 mmHg | Intraocular pressure in right eye ([2]; 2.0 mg/mL, before administration): 11.23 mmHg | Intraocular pressure in left eye ([2]; 8.0 mg/mL group, 2 h after administration): 5.93 mmHg | Intraocular pressure in left eye ([2]; 8.0 mg/mL group, 4 h after administration): 6.43 mmHg | Intraocular pressure in left eye ([2]; 8.0 mg/mL group, 6 h after administration): 10.10 mmHg | Intraocular pressure in left eye ([2]; 8.0 mg/mL group, 8 h after administration): 11.87 mmHg | Intraocular pressure in left eye ([2]; 8.0 mg/mL group, 10 h after administration): 13.19 mmHg | Intraocular pressure in left eye ([2]; 8.0 mg/mL group, before administration): 11.20 mmHg | Intraocular pressure in right eye ([2]; 8.0 mg/mL, 2 h after administration): 7.40 mmHg | Intraocular pressure in right eye ([2]; 8.0 mg/mL, 4 h after administration): 7.97 mmHg | Intraocular pressure in right eye ([2]; 8.0 mg/mL, 6 h after administration): 8.84 mmHg | Intraocular pressure in right eye ([2]; 8.0 mg/mL, 8 h after administration): 8.60 mmHg | Intraocular pressure in right eye ([2]; 8.0 mg/mL, 10 h after administration): 8.78 mmHg | Intraocular pressure in right eye ([2]; 8.0 mg/mL, before administration): 11.53 mmHg | Intraocular pressure reduction effect (conclusion) ([2]; at different test doses (0.25, 2.0, 8.0 mg/mL), amplitude and sustained effect better than K-115): good intraocular pressure reduction effects
